Common to all, as to type: cell-based
Assay [1] relates to Pseudomonas aeruginosa FADDI-PA038. As to conditions: FADDI-PA038. The essentials: (§1)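 Antibacterial activity is given as MIC from microdilution in CAMHB under the CLSI M100-S24 standard. P. aeruginosa FADDI-PA022 and A. baumannii FADDI-AB034 are multidrug-resistant clinical isolates, while ATCC 17978 is a reference strain.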
Assay [2] has as its system Klebsiella pneumoniae FADDI-KP032. As to conditions: FADDI-KP032. The method, boiled down:
as §1

Assay [3] relates to Pseudomonas aeruginosa FADDI-PA022. To be noted: FADDI-PA022. The essentials:
as §1

Assay [4] relates to Klebsiella pneumoniae FADDI-KP022. As to conditions: FADDI-KP022. The method, boiled down: as §1
Assay [5] has as its system Enterobacter cloacae FADDI-EC003. To be noted: FADDI-EC003. The method, boiled down: as §1
Assay [6] has as its system Pseudomonas aeruginosa ATCC 27853. To be noted: ATCC 27853. The method, boiled down: as §1
The test system of assay [7] is Enterobacter cloacae FADDI-EC001. To be noted: FADDI-EC001. The method, boiled down: (§2)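 Gram-negative bacteria susceptible to polymyxin were exposed to lipopeptide trifluoroacetates in CAMHB, and growth inhibition was read as the MIC by the CLSI microdilution protocol.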
For assay [8], the system named is Klebsiella pneumoniae Kp BM1. To be noted: Kp BM1. The essentials: as §2
In assay [9] the test system is Enterobacter cloacae FADDI-EC006. As to conditions: FADDI-EC006. The method, boiled down:
as §1

Assay [10] deals with Acinetobacter baumannii FADDI-AB034. To be noted: FADDI-AB034. The essentials:
as §1

Assay [11] has as its system Pseudomonas aeruginosa FADDI-PA01. To be noted: FADDI-. The essentials: as §1
Assay [12] deals with Acinetobacter baumannii ATCC 17978. To be noted: ATCC 17978. The method, boiled down:
as §1

The subject of assay [13] is Acinetobacter baumannii FADDI-AB030. The experiment in a line: microbe, parasite or virus in culture. To be noted: FADDI-AB030. The method, boiled down: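 Broth microdilution MIC in cation-adjusted Mueller-Hinton broth per CLSI M100-S24; lipopeptides tested as TFA salts. FADDI-AB030 is a multidrug-resistant clinical isolate. Polymyxin B sulphate served as control.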

Converted amounts (≈) assume the structure as drawn. Where a SMILES comes first, the peptide text is derived from it. Bridges are numbered along the chain shown (N, C = ends). [ ]: non-standard residue; d: D form. The star is where a group is joined. X45 = O=C(c1cc(C(F)(F)F)ccn1)*; X4 = O=C(c1cncc(C(F)(F)F)c1)*; X36 = O=C(c1ncc(Br)cc1Br)*; X13 = O=C(c1ccnc(Br)c1)*; X25 = O=C(c1ccnc(Cl)c1)*; X33 = O=C(c1cncc(Br)c1)*; Dab = NCC[C@H](N)C(=O)O; Abu = CC[C@H](N)C(=O)O; Dap = NC[C@H](N)C(=O)O

As for `CC[C@@H]1NC(=O)[C@@H](CC(C)C)NC(=O)[C@H](CCN)NC(=O)[C@@H](NC(=O)[C@H](CN)NC(=O)[C@@H](NC(=O)[C@H](CCN)NC(=O)c2cncc(C(F)(F)F)c2)[C@@H](C)O)CCNC(=O)[C@H]([C@@H](C)O)NC(=O)[C@H](CCN)NC(=O)[C@H](CCN)NC1=O` [Compound 20] (X4-[Dab]T[Dap][Dab][Dab][dL][Abu][Dab][Dab]T; lactam 4-C), the Minimum inhibitory concentration in assay [1] was 0.5 µg/mL (≈ 0.431 µM); in [2], 0.5 µg/mL (≈ 0.431 µM); in assay [3], 0.5 µg/mL (≈ 0.431 µM); in [4], less than 0.125 µg/mL; in [5] it was 4 µg/mL (≈ 3.45 µM); in assay [6] it was 0.5 µg/mL (≈ 0.431 µM). Besides, the Minimum inhibitory concentration was 0.5 µg/mL (≈ 0.431 µM) in assay [7]; 0.25 µg/mL (≈ 0.215 µM) in assay [8]; 0.5 µg/mL (≈ 0.431 µM) in [9]; 0.5 µg/mL (≈ 0.431 µM) in assay [10]; 0.5 µg/mL (≈ 0.431 µM) in assay [11]; 2 µg/mL (≈ 1.72 µM) in [12]. The compound further showed a Minimum inhibitory concentration in assay [13] of 0.5 µg/mL (≈ 0.431 µM).
Regarding `CC[C@@H]1NC(=O)[C@@H](CC(C)C)NC(=O)[C@H](CCN)NC(=O)[C@@H](NC(=O)[C@H](CN)NC(=O)[C@@H](NC(=O)[C@H](CCN)NC(=O)c2cc(C(F)(F)F)ccn2)[C@@H](C)O)CCNC(=O)[C@H]([C@@H](C)O)NC(=O)[C@H](CCN)NC(=O)[C@H](CCN)NC1=O` [Compound 21] (X45-[Dab]T[Dap][Dab][Dab][dL][Abu][Dab][Dab]T; lactam 4-C), the Minimum inhibitory concentration in assay [1] is 0.5 µg/mL (≈ 0.431 µM); in [2], less than 0.125 µg/mL; in [3], 0.25 µg/mL (≈ 0.215 µM); in assay [4], less than 0.125 µg/mL; in assay [5] it was 0.25 µg/mL (≈ 0.215 µM); in assay [6], 0.25 µg/mL (≈ 0.215 µM). The Minimum inhibitory concentration in [7] was less than 0.125 µg/mL; in [8], less than 0.125 µg/mL; in [9], 1 µg/mL (≈ 0.862 µM); in [10], 0.25 µg/mL (≈ 0.215 µM); in [11], 0.25 µg/mL (≈ 0.215 µM); in assay [12], 0.25 µg/mL (≈ 0.215 µM). This compound also showed a Minimum inhibitory concentration in assay [13] of 0.25 µg/mL (≈ 0.215 µM).
As for `CC[C@@H]1NC(=O)[C@@H](CC(C)C)NC(=O)[C@H](CCN)NC(=O)[C@@H](NC(=O)[C@H](CN)NC(=O)[C@@H](NC(=O)[C@H](CCN)NC(=O)c2ncc(Br)cc2Br)[C@@H](C)O)CCNC(=O)[C@H]([C@@H](C)O)NC(=O)[C@H](CCN)NC(=O)[C@H](CCN)NC1=O` [Compound 22] (X36-[Dab]T[Dap][Dab][Dab][dL][Abu][Dab][Dab]T; lactam 4-C), the Minimum inhibitory concentration in assay [1] is 0.5 µg/mL (≈ 0.4 µM); in assay [2], less than 0.125 µg/mL; in assay [3] it was 0.5 µg/mL (≈ 0.4 µM); in [4], less than 0.125 µg/mL; in assay [5] it was less than 0.125 µg/mL; in [6] it was 0.5 µg/mL (≈ 0.4 µM). In addition, the Minimum inhibitory concentration was less than 0.125 µg/mL in assay [7]; less than 0.125 µg/mL in assay [8]; less than 0.125 µg/mL in [9]; 0.5 µg/mL (≈ 0.4 µM) in assay [10]; 0.25 µg/mL (≈ 0.2 µM) in assay [11]; 0.5 µg/mL (≈ 0.4 µM) in assay [12]. For the same compound, in [13], the Minimum inhibitory concentration was determined as 0.5 µg/mL (≈ 0.4 µM).
Take `CC[C@@H]1NC(=O)[C@@H](CC(C)C)NC(=O)[C@H](CCN)NC(=O)[C@@H](NC(=O)[C@H](CN)NC(=O)[C@@H](NC(=O)[C@H](CCN)NC(=O)c2cncc(Br)c2)[C@@H](C)O)CCNC(=O)[C@H]([C@@H](C)O)NC(=O)[C@H](CCN)NC(=O)[C@H](CCN)NC1=O` [Compound 23] (X33-[Dab]T[Dap][Dab][Dab][dL][Abu][Dab][Dab]T; lactam 4-C): the Minimum inhibitory concentration was 0.5 µg/mL (≈ 0.427 µM) in assay [1]; 0.5 µg/mL (≈ 0.427 µM) in assay [2]; 0.25 µg/mL (≈ 0.213 µM) in [3]; less than 0.125 µg/mL in [4]; 0.5 µg/mL (≈ 0.427 µM) in assay [5]; 0.25 µg/mL (≈ 0.213 µM) in [6]. For the same compound, the Minimum inhibitory concentration is 0.5 µg/mL (≈ 0.427 µM) in [7]; 0.25 µg/mL (≈ 0.213 µM) in assay [8]; 4 µg/mL (≈ 3.42 µM) in assay [9]; 0.5 µg/mL (≈ 0.427 µM) in assay [10]; 0.5 µg/mL (≈ 0.427 µM) in assay [11]; 2 µg/mL (≈ 1.71 µM) in assay [12]. In assay [13], this compound came in with a Minimum inhibitory concentration of 0.5 µg/mL (≈ 0.427 µM).
Consider `CC[C@@H]1NC(=O)[C@@H](CC(C)C)NC(=O)[C@H](CCN)NC(=O)[C@@H](NC(=O)[C@H](CN)NC(=O)[C@@H](NC(=O)[C@H](CCN)NC(=O)c2ccnc(Cl)c2)[C@@H](C)O)CCNC(=O)[C@H]([C@@H](C)O)NC(=O)[C@H](CCN)NC(=O)[C@H](CCN)NC1=O` [Compound 24] (X25-[Dab]T[Dap][Dab][Dab][dL][Abu][Dab][Dab]T; lactam 4-C), for which the Minimum inhibitory concentration in assay [1] was 1 µg/mL (≈ 0.888 µM); in assay [2] it was 0.5 µg/mL (≈ 0.444 µM); in assay [3], 0.25 µg/mL (≈ 0.222 µM); in [4], less than 0.125 µg/mL; in [5], 0.25 µg/mL (≈ 0.222 µM); in [6] it was 0.25 µg/mL (≈ 0.222 µM). The Minimum inhibitory concentration is 0.25 µg/mL (≈ 0.222 µM) in assay [7]; 0.25 µg/mL (≈ 0.222 µM) in assay [8]; 4 µg/mL (≈ 3.55 µM) in assay [9]; 1 µg/mL (≈ 0.888 µM) in [10]; 0.25 µg/mL (≈ 0.222 µM) in assay [11]; 2 µg/mL (≈ 1.78 µM) in assay [12]. In [13], the Minimum inhibitory concentration was determined as 1 µg/mL (≈ 0.888 µM).
For `CC[C@@H]1NC(=O)[C@@H](CC(C)C)NC(=O)[C@H](CCN)NC(=O)[C@@H](NC(=O)[C@H](CN)NC(=O)[C@@H](NC(=O)[C@H](CCN)NC(=O)c2ccnc(Br)c2)[C@@H](C)O)CCNC(=O)[C@H]([C@@H](C)O)NC(=O)[C@H](CCN)NC(=O)[C@H](CCN)NC1=O` [Compound 25] (X13-[Dab]T[Dap][Dab][Dab][dL][Abu][Dab][Dab]T; lactam 4-C), the Minimum inhibitory concentration in [1] was 1 µg/mL (≈ 0.854 µM); in assay [2] it was 0.25 µg/mL (≈ 0.213 µM); in [3], 0.25 µg/mL (≈ 0.213 µM); in assay [4] it was less than 0.125 µg/mL; in assay [5], less than 0.125 µg/mL; in assay [6] it was 0.25 µg/mL (≈ 0.213 µM). Also, the Minimum inhibitory concentration was found to be 0.5 µg/mL (≈ 0.427 µM) in [7]; 0.25 µg/mL (≈ 0.213 µM) in assay [8]; 2 µg/mL (≈ 1.71 µM) in assay [9]; 1 µg/mL (≈ 0.854 µM) in [10]; 0.25 µg/mL (≈ 0.213 µM) in [11]; 1 µg/mL (≈ 0.854 µM) in assay [12]. Also, the Minimum inhibitory concentration in assay [13] was determined as 1 µg/mL (≈ 0.854 µM).
